Oc1ccccc1/C=N/CC/N=C/c1ccccc1O
solubility (mole fraction)
Conditions | in dichloromethane | in diethyl ether | in ethanol | in methanol | in n-hexane | in toluene
268.15 K | 0.0352 | 0.00119 | – | – | – | –
273.15 K | 0.0369 | 0.00136 | – | – | – | –
278.15 K | 0.0408 | 0.00165 | 0.00026 | 0.0003 | – | 0.00947
283.15 K | 0.0469 | 0.00193 | 0.00035 | 0.00036 | – | 0.0115
288.15 K | 0.0533 | 0.00232 | 0.00048 | 0.00049 | 0.00084 | 0.014
293.15 K | 0.0605 | 0.00281 | 0.00069 | 0.00064 | 0.00095 | 0.0164
298.15 K | 0.0696 | 0.0035 | 0.0009 | 0.00081 | 0.00112 | 0.0198
303.15 K | 0.0775 | 0.00455 | 0.00112 | 0.00099 | 0.00127 | 0.0256
308.15 K | – | – | 0.00147 | 0.00125 | 0.00143 | 0.0305
313.15 K | – | – | 0.00199 | 0.00155 | 0.00161 | 0.0379
318.15 K | – | – | 0.00252 | 0.00185 | 0.00186 | 0.047

Source: BigSolDB 2.1
